Source: article PMC6533151 (Neuron, 2019)
Where “and” joins values, the source holds several entries; their conditions need not be identical. Equal values may be shown once. Where a name gives a salt, the structure may show the parent alone. Read-outs that look alike come from different tables or passages of the source. Each block holds one compound with its values, some of them ahead of it.

Columns and labels:
[1] = test system: GRABDA1m; details: 50 μM DA
[2] = test system: GRABNE sensors; assay: Ligand specificity and dynamic range of GRABNE sensors; format: cell-based, human; details: for fluorescence response of the sensors to the compound: HEK293T cells, Fig. 2G
[3] = test system: GRABNE1h; assay: GRABNE1h fluorescence in acute mouse hippocampal slices; format: cell-based, human
[4] = test system: GRABNE1m; details: cultured hippocampal slices; puff application in ACSF
[5] = biological target: T1, GRABNE1m (Homo sapiens, UniProt P08913); format: cell-based; details: cultured neurons
[6] = test system: optogenetically evoked NE release in the LC (GRABNE1m fluorescence); format: in vivo, mouse; details: i.p.; desipramine 10 mg/kg, yohimbine 2 mg/kg
[7] = test system: NE dynamics in the lateral hypothalamus (GRABNE1m fluorescence); format: in vivo, mouse; details: i.p.; atomoxetine 3 mg/kg, yohimbine 2 mg/kg, GBR 12909 10 mg/kg, sulpiride 50 mg/kg
[8] = test system: looming-evoked NE release (GRABNE1m fluorescence); assay: Looming-evoked GRABNE1m fluorescence in optic tectum of zebrafish; format: in vivo; details: for effect on looming-induced increase in GRABNE1m fluorescence: bath application 50 μM
[9] = biological target: GRABNE1h (Homo sapiens, UniProt P08913, T388K); assay: Fluorescence response of GRABNE1h expressed in HEK293T cells; format: cell-based
[10] = biological target: T1, GRABNE1m; format: cell-based
[11] = test system: GRABNEmut; format: cell-based, human; details: cultured hippocampal slices
[12] = test system: GRABNE1h; format: cell-based, human; details: cultured hippocampal slices; puff application in ACSF
[13] = test system: GRABNEmut; assay: Fluorescence response of GRABNEmut expressed in HEK293T cells; format: cell-based, human; details: 100 μM NE
[14] = test system: GRABNEmut; assay: Bath application to zebrafish expressing GRABNEmut; format: in vivo; details: 50 μM NE
[15] = test system: GRABNE1m; assay: Bath application to Tg; format: in vivo, zebrafish
[16] = test system: GRABNE1h; assay: Fluorescence response of GRABNE1h expressed in HEK293T cells; format: cell-based, human; details: 10 μM yohimbine
[17] = test system: release of endogenous NE in the LC (GRABNE1m fluorescence); format: cell-based, mouse
[18] = test system: GRABNE1m; format: cell-based, human

Compound: NCCc1ccc(O)c(O)c1 [DA, Dopamine hydrochloride]
fluorescence response to application [1]: responded robustly

fluorescence response to the compound ([5]; compounds at 10 μM each): responded specifically
Compound: CNC[C@H](O)c1ccc(O)c(O)c1 [Epi, Epinephrine hydrochloride]
fluorescence response of the sensors to the compound [2]: responded
fluorescence response to exogenous application [3]: evoked a fluorescence increase
fluorescence response to exogenous application [4]: generated fluorescence increases

Compound: Fc1ccc(C(OCCN2CCN(CCCc3ccccc3)CC2)c2ccc(F)cc2)cc1 [GBR 12909]
effect on light-evoked GRABNE1m responses [6]: had no effect
effect on GRABNE1m peak fluorescence during tail suspension [7]: had no effect
effect on time to return to baseline after tail suspension [7]: had no effect

Compound: Cc1ccc(OCC(O)C(C)NC(C)C)c2c1CCC2.Cl (stereo not drawn) [ICI 118,551, ICI 118,551 hydrochloride]
effect on looming-induced increase in GRABNE1m fluorescence [8]: unaffected

Compound: NC[C@H](O)c1ccc(O)c(O)c1 [NE, Norepinephrine]
maximum ΔF/F0 ([9]; 100 μM NE): ~ 130%
mean on time constant after photolysis of NPEC-caged NE ([9]; 405-nm uncaging, single exponential fit): 137 ms
average τoff ([9]; NE followed by 200 μM yohimbine, line scanning): 1890 ms
increase in sensitivity to NE compared with GRABNE1m ([9]; T6.34K point mutation): 10 fold
average τoff ([10]; HEK293T cells, NE followed by 200 μM yohimbine, line scanning): 680 ms
internalization of GRABNE1m ([10]; saturating concentration of NE for 2 h): no internalization
fluorescence response of the sensors to the compound [2]: responded
peak ΔF/F0 response / dynamic range of the GRABNE sensor family ([2]; saturating NE): 230% and ~ 200%
fluorescence response to exogenous application [11]: no detectable effect
fluorescence response to exogenous application [3]: evoked a fluorescence increase
fluorescence response to exogenous application [12]: evoked a robust increase in fluorescence
fluorescence response to exogenous application [4]: evoked a robust increase in fluorescence
fluorescence response to NE [13]: does not respond
fluorescence response to NE [14]: did not respond
fluorescence response to bath application ([15]; 50 μM, tectal neuropil, larvae): elicited a robust increase in fluorescence intensity

Compound: CNCC[C@@H](Oc1ccccc1C)c1ccccc1 [atomoxetine, Atomoxetine hydrochloride]
effect on GRABNE1m peak fluorescence during tail suspension [7]: had no effect
effect on time to return to baseline after tail suspension [7]: significantly slowed the return of signal to its baseline

Compound: Brc1c(NC2=NCCN2)ccc2nccnc12 [brimonidine, UK 14,304 tartrate]
fluorescence response of the sensors to the compound [2]: responded
fluorescence response to exogenous application [3]: evoked a fluorescence increase
fluorescence response to exogenous application [4]: generated fluorescence increases

Compound: CNCCCN1c2ccccc2CCc2ccccc21 [desipramine, Desipramine hydrochloride]
effect on basal GRABNE1m fluorescence [6]: slow progressive increase
effect on light-evoked GRABNE1m responses [6]: increase in the magnitude and decay time
effect on decay of looming-induced fluorescence signal ([8]; desipramine 50 μM): slowed the decay of the fluorescence signal

Compound: CCc1cc(Cl)c(OC)c(C(=O)NC[C@@H]2CCCN2CC)c1O [eticlopiride, Eticlopride hydrochloride]
effect on light-evoked GRABNE1m responses [6]: had no effect

Compound: CCN1CCCC1CNC(=O)c1cc(S(N)(=O)=O)ccc1OC (stereo not drawn) [sulpiride, Sulpiride]
effect on GRABNE1m peak fluorescence during tail suspension [7]: had no effect
effect on time to return to baseline after tail suspension [7]: had no effect

Compound: COC(=O)[C@@H]1[C@H]2C[C@H]3c4[nH]c5ccccc5c4CCN3C[C@@H]2CC[C@@H]1O [yohimbine, Yohimbine hydrochloride]
block of uncaging-induced fluorescence increase [16]: blocked
block of NE-induced fluorescence increase ([2]; GRABNE-expressing HEK293T cells): blocked
block of GRABNE1m response to applied NE ([17]; 50 μM NE, 20 μM yohimbine, Fig. 4H): abolished
effect on stimulation-induced fluorescence response ([17]; 20 pulses at 20 Hz, 4-AP 100 μM, Cd2+ 100 μM, desipramine 10 μM, yohimbine 20 μM): blocked the response
block of agonist-evoked fluorescence increase [3]: blocked
block of electrically evoked fluorescence increase ([3]; stimuli at 20 Hz for 1 s): blocked
effect on basal GRABNE1m fluorescence [6]: abolished
effect on light-evoked GRABNE1m responses [6]: abolished
effect on looming-induced increase in GRABNE1m fluorescence [8]: blocked
effect on GRABNE1m peak fluorescence during tail suspension [7]: decreased
effect on time to return to baseline after tail suspension [7]: significantly accelerated the return to baseline
block of NE-induced fluorescence increase ([15]; 50 μM antagonist after 50 μM NE): blocked completely
block of NE-induced fluorescence increase [18]: blocked completely

Compound: pertussis toxin
effect on NE-induced fluorescence response ([9]; blocking G protein activation): had no effect
effect on NE-induced fluorescence response ([10]; HEK293T cells, blocking G protein activation): had no effect
effect on NE-induced fluorescence change ([5]; inhibiting G protein activation): did not affect
